Results from patent US6620805B1, “Delivery of nucleic acids by porphyrins” (Yale University, priority 1996, dated 2003).
Where two headings read alike, the source gives them in different places.

Columns and labels:
HepG2 2.2.15 cells [1] = conditions: 5 μg oligo A, 4 h; for cellular delivery compared with TMP: 0-300 μg porphyrin
Experimental: HepG2 2.2.15 cells were set up in 96 well plates as above. […] Complexes were added to the cultures and incubated at 37° C. for 4 h. The monolayers were washed three times with PBS and cells were lysed and counted as previously described.

oligo A [2] = experiment: Carboxymethyl (CM) ion exchange column binding of labelled oligo to cationic porphyrin; conditions: for porphyrin required for complete binding (saturation) of 60 μg oligo: 60 μg oligo A, 150 mM NaCl, 30 min room temperature, column binding assay
oligo A [3] = conditions: 2.4 μg TMP, 150 mM NaCl
Excerpt: The interaction of nucleic acids with water soluble porphyrins can easily be followed by measuring the absorbance spectrum of the porphyrin in the range 350-450 nm. Porphyrins have a characteristic Soret peak in this wavelength range. […] Spectra were taken over the range 300-500 nm and the wavelength of the Soret peak plotted against the mass of EGS.

HepG2 2.2.15 cells [4] = experiment: Fluorescence microscopy of delivered fluorescent oligo; assay type: cell-based, human; conditions: 100 μg fluorescent oligo, with 100 μg TMP or free, 1.5 h and 4 h
Experimental: A 30 mer oligo containing a 5′ fluorescein isothiocyanate molecule was synthesised, oligo C. Sterile glass coverslips were placed into the wells of 6-well plates and HepG2 2.2.15 cells were seeded into the wells at 5×10^4 cells/well. […] After 1.5 h and 4 h the coverslips were removed from the wells, dipped five times in PBS to remove excess oligo and were fixed in 4% formaldehyde in PBS. The coverslips were mounted in Slowfade (Molecular Probes, Inc.), and viewed on a Nikon Diaphot fluorescence microscope.

[5] = 100 or 200 μg TMP with 100 μg oligo
Experimental: An internally-labelled Oligo A was prepared by kinasing a component oligo with ^33P ATP and ligating this shorter oligo to another short component cold oligo to form the full-length version. […] After 2 h and 24 h the mice were killed by cervical dislocation, weighed and their livers removed. Livers were weighed, homogenized and a small sample counted by liquid scintillation counting.

9.5 kbp plasmid = conditions: 20 μg 9.5 kbp plasmid, 500 μg TMP
hepatoma cells = experiment: Timecourse of binding/uptake of TMP-delivered oligo to hepatoma cells; assay type: cell-based, human; conditions: 30 μg TMP and 10 μg oligo A
Experimental: A timecourse experiment was carried out to determine the kinetics of binding/uptake of TMP-delivered oligonucleotides to hepatoma cells. […] A control timecourse was prepared without a delivery vehicle. Nucleic acids were recovered from one set of wells and were purified and analysed as described above.

HepG2 2.2.15 cells [6] = experiment: Influence of serum on TMP delivery of EGS; assay type: cell-based, human; conditions: 30 μg TMP with 5 μg oligo A; 0, 4% or 10% serum; 4 h and 24 h
Experimental: Ninety-six well plates were set up as described above and allowed to grow until 80% confluence. Six replicate wells for each variable were washed twice with PBS. OPTI MEM (0 serum), 4% FCS in RPMI or 10% FCS in RPMI was added to the appropriate wells.
Oligo A was radiolabelled as above. These complexes were added to the wells (in replicates of 6) and after 4 h and 24 h the monolayers were washed 3 times with PBS. Cells were lysed as above and radioactivity counted.

HBV = experiment: Anti HBV activity in cell culture (extracellular HBV DNA by dot-blot); assay type: cell-based, Hepatitis B virus; conditions: TMP concentration corresponding to 100 nM EGS
Experimental: (§1) The human hepatoma cell line HepG2 2.2.15 containing four copies of the HBV genome was used in this study. Cells were plated out (2×10^4/well) into 96 well plates and left for 5 days until confluent. […] The various dilutions were added to the cell monolayers (6 replicates per concentration). Daily treatments were carried out for 5 days changing the medium each day. After the fifth day cell culture supernatant was removed and assayed for extracellular HBV DNA levels by dot-blot using the method of Korba B. E. and Gerin J. L. (Use of a standardized cell culture assay to assess activities of nucleoside analogs against Hepatitis B virus replication. (1992) Antiviral Research 19, 55-70).

[7] = 200 μg oligo A with 100 μg TMP
Experimental: After 8 h and 24 h mice were sacrificed and their livers quickly immersed in OCT medium (Tissue-Tek) and frozen in liquid N2. Thin sections were cut and sections were mounted on glass slides. Localisation of EGS in the liver section was determined by hybridisation of a ^33P-labelled antisense oligonucleotide complementary to the EGS sequence, and overlaying with a photographic emulsion. Background hybridisation was determined using a ^33P-labelled oligo with the same sequence as the EGS.

HepG2 2.2.15 = conditions: TMP concentration; 700 nM TMP: 100 nM EGS; daily treatments for 5 days
Experimental: as §1

HepG2 2.2.15 cells [8] = experiment: Delivery of TMP-complexed oligo to hepatoma cells in culture (cell-associated radioactivity); assay type: cell-based, human
Experimental: The complexed oligo was delivered to the cell cultures (6 replicates per variable), samples were removed for measurement of delivered radioactivity cpm and the cultures were returned to a 37° C. incubator for 4 h. Cultures were washed three times with 100 μl PBS and cells were lysed with SDS lysis buffer for extraction of nucleic acids (0.5% SDS, 10 mM Tris HCl pH 7.4, 10 mM EDTA, 10 mM NaCl, […] proteinase K). Lysates were counted to determine cell-associated radioactivity and nucleic acids were extracted from the lysate by phenol-chloroform treatment and ethanol precipitation.

Fe(III)-tetra-(N-methyl-4-pyridyl)-porphyrin chloride [Fe TMP]
cellular delivery compared with TMP (HepG2 2.2.15 cells [1]): does not affect cellular delivery by TMP up to a level of 30 μg
porphyrin amount giving maximal nucleic acid uptake (HepG2 2.2.15 cells [1]): 30 µg
influence of chelated Fe atom on nucleic acid binding (oligo A [2]; compared with TMP): behaved no differently than TMP alone

C[N+](C)(C)c1ccc(-c2c3nc(c(-c4ccc([N+](C)(C)C)cc4)c4ccc([nH]4)c(-c4ccc([N+](C)(C)C)cc4)c4nc(c(-c5ccc([N+](C)(C)C)cc5)c5ccc2[nH]5)C=C4)C=C3)cc1 [TMA, meso tetra(trimethyl anilinium)porphine]
cellular delivery compared with TMP (HepG2 2.2.15 cells [1]): never as great as the TMP analogues
porphyrin amount giving maximal nucleic acid uptake (HepG2 2.2.15 cells [1]): 11 µg
porphyrin required for complete binding (saturation) of 60 μg oligo (oligo A [2]): approximately 100 μg

C[n+]1ccc(-c2c3nc(c(-c4cc[n+](C)cc4)c4ccc([nH]4)c(-c4cc[n+](C)cc4)c4nc(c(-c5cc[n+](C)cc5)c5ccc2[nH]5)C=C4)C=C3)cc1.Cc1ccc(S(=O)(=O)[O-])cc1.Cc1ccc(S(=O)(=O)[O-])cc1.Cc1ccc(S(=O)(=O)[O-])cc1.Cc1ccc(S(=O)(=O)[O-])cc1 [TMP, Meso-tetra(N-methyl-4 pyridyl)porphine Tetra Tosylate]
mass of oligo at saturation (Soret peak reached 440 nm) (oligo A [3]): approximately 3 μg
intracellular location of fluorescence (HepG2 2.2.15 cells [4]): All nuclei of the cells in the TMP-delivered fluorescent oligo cultures appeared brightly fluorescent
persistence of delivered oligo in the liver [5]: persisted for 24 h
tolerability in mice ([5]; tail vein): well tolerated
plasmid bound to TMP (9.5 kbp plasmid): 5 µg
oligo cell-associated (hepatoma cells; 8 h timepoint): greater than 75%
change in cell-associated material after 24 h (hepatoma cells; 24 h): reduction in the material cell-associated
material cell-associated (HepG2 2.2.15 cells [6]): 50-70%
antiviral activity of TMP (HBV): highly antiviral
hybridisation signal in liver after 24 h ([7]; 24 h): level of signal is reduced after 24 h
intrahepatic distribution of EGS ([7]; tail vein, mice): substantial EGS present in all hepatocytes
concentration showing no toxicity (HepG2 2.2.15): less than 700 nM
hepatic EGS levels over time (100 μg EGS with 20 μg TMP per mouse (lower TMP dose)): declined slightly over time
hepatic EGS levels over time (100 μg EGS with 100 μg TMP per mouse (higher TMP dose)): gradually increased
EGS level in kidney over time (100 μg EGS with 100 or 20 μg TMP per mouse, 2-72 h): rapid initial peak in the kidney which declined over 72 h
EGS levels in spleen, fat and serum (100 μg EGS with TMP, mice): negligible
enhancement with the higher TMP level (100 versus 20 μg TMP, same amount of EGS): two-fold
liver toxicity (mice, 100 μg EGS with 100 or 20 μg TMP): No liver toxicity was detected
oligo delivered (HepG2 2.2.15 cells [8]; 1 μg delivered dose of oligo, 4 h): 0.5 µg
oligo delivered (HepG2 2.2.15 cells [8]; 5 μg delivered dose of oligo, 4 h): 2.8 µg
oligo delivered (HepG2 2.2.15 cells [8]; 10 μg delivered dose of oligo, 4 h): 4.8 µg
TMP amount at saturation of binding or uptake (HepG2 2.2.15 cells [8]; 1, 5 or 10 μg oligo A, 4 h): 30 µg
maximum oligo cell associated (HepG2 2.2.15 cells [8]; 3×10^4 cells): 4 to 5 µg
added dose cell-associated (HepG2 2.2.15 cells [8]; all oligo doses, 4 h): Approximately 50%
porphyrin required for complete binding (saturation) of 60 μg oligo (oligo A [2]): 60 µg
stoichiometry of oligo:TMP at saturation (oligo A [2]; 30 mer oligo, charge neutralisation): 4 molecules of oligo interact with 29 molecules of TMP
